{
  "source": "paper PMC10146846",
  "about": "“Studying the Mechanism of Interaction of Doxofylline with Human Lysozyme: A Biophysical and In Silico Approach” (Molecules, 2023)",
  "key": {"[1]": {"molecular_target": "T1, Human lysozyme (Homo sapiens, UniProt P61626)", "T1 construct": "gene LYZ", "T1 sequence (P61626 19-148)": "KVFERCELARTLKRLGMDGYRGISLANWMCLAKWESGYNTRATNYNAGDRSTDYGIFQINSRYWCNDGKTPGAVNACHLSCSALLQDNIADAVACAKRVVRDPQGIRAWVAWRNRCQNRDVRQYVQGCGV", "test": "intrinsic fluorescence quenching, excitation […] nm", "type": "binding", "conditions": "double-log; sodium phosphate pH 7.4, lysozyme 10 µM, doxofylline 0–60 µM"}, "[2]": {"molecular_target": "T1, Human lysozyme", "test": "UV-vis absorption titration, double-reciprocal plot", "type": "binding", "text": "UV-vis absorption titration, double-reciprocal plot on Human lysozyme"}},
  "data": [
    {"smiles": "Cn1c(=O)c2c(ncn2CC2OCCO2)n(C)c1=O", "note": "[doxofylline]", "values": [
      {"measurement": "Kb", "setting": "[1]", "result": 22900, "unit": "M⁻¹"},
      {"measurement": "Kd", "setting": "[2]", "result": 5.18, "unit": "µM"}
    ]}
  ]
}
